SMILES strings stand for the structures.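 Briefly, cells in 96-well plates were exposed to five compound concentrations for 48 h, and endpoints were estimated by linear interpolation. Here, GI50 denotes the concentration required for 50% inhibition of growth. TGI is the concentration that stops growth completely.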

What all share (test): NCI tumour cell line growth inhibition, 48 h
Assay [1] concerns K-562 leukemia.
Assay [2] concerns SK-MEL-2 melanoma.
Assay [3] relates to SK-MEL-28 melanoma.
For assay [4], the system named is TK-10 renal.
For assay [5], the system named is UACC-62 melanoma.
Assay [6] has as its system DLD-1 colon.
Assay [7] deals with DMS 114 small cell lung.
Assay [8] has as its system LXFL 529 NSCLC.
Assay [9] deals with SNB-78 CNS.
Assay [10] relates to HOP-18 NSCLC.

As for `COc1ccc(O)c(C(=O)c2ccc(C(=O)N[C@H]3CCCNC[C@@H]3NC(=O)c3ccncc3)cc2)c1F`, the GI50 in assay [1] was 7780 nM; in assay [2], 4.2 µM; in assay [3], greater than 18.4 µM; in assay [4], 684 nM; in [5] it was 9260 nM. In addition, the TGI in assay [1] is greater than 25 µM; in assay [2], greater than 22.4 µM; in assay [3], greater than 25 µM; in assay [4] it was greater than 25 µM; in assay [5], greater than 25 µM.
Consider `Cc1nc([N+](=O)[O-])cn1CC(=N)N`, for which the TGI in assay [6], in assay [7], in assay [1], in assay [8], in [2] and in assay [3] was greater than 100 µM in each case. Further, the TGI in assay [4] and in assay [5] was greater than 100 µM in each case.
With `Cc1ccc(S(=O)(=O)c2ccc(N)cc2)cc1`, the TGI in assay [6], in [1], in assay [8], in assay [2], in assay [3] and in [9] was greater than 100 µM in each case. In addition, the TGI in [4] and in assay [5] was greater than 100 µM each time.
Take `C/C(CC(=O)Nc1cccc(Cl)c1C)=N\NC(=O)c1ccncc1`: the TGI in assay [6], in [7], in assay [1], in [8], in assay [2] and in [3] was greater than 100 µM each time. The TGI in [9], in assay [4] and in assay [5] was greater than 100 µM each time.
As to `CCn1c(=O)c2c(=O)c3c4c(oc3oc2c2ccccc21)C(=O)c1ccccc1C4=O`, the GI50 in assay [1] was 1730 nM; in [2], greater than 100 µM; in assay [3], greater than 100 µM; in assay [4], greater than 71500 nM; in [5], greater than 25000 nM. The TGI in assay [1], in [2], in assay [3], in assay [4] and in [5] was greater than 100 µM each time.
As for `CN(CCO)c1ccc(N2Cc3ccccc3OC3=C2C(=O)c2c(O)ccc(O)c2C3=O)cn1`, the GI50 was 75.9 nM in assay [1]; 0.299 µM in assay [2]; 0.246 µM in [3]; 248 nM in assay [4]; 210 nM in assay [5]. The TGI in assay [1] was greater than 100 µM; in [2], 0.99 µM; in assay [3] it was 0.611 µM; in assay [4], 0.632 µM; in assay [5] it was 0.498 µM.
As to `CC1=C(C(=O)Nc2ccc(Cl)c(Cl)c2)C(c2cccc(Oc3ccccc3)c2)NC(=O)N1` (centres undefined), the GI50 in assay [1] was 18600 nM; in assay [2] it was 5.68 µM; in assay [3] it was 11.1 µM; in assay [4] it was 20700 nM; in assay [5] it was 6270 nM. In addition, the TGI in [1] is greater than 50 µM; in [2], 17.9 µM; in [3] it was 33.2 µM; in assay [4], greater than 50 µM; in assay [5], 14.1 µM.
For the molecule `O=C1NC(=O)/C(=C\c2ccccc2)C2=C1CCCC2`, the GI50 in assay [1] is 5390 nM; in assay [2], 7.72 µM; in assay [3] it was 4.14 µM; in assay [4], 12000 nM; in assay [5] it was 3130 nM. Besides, the TGI is greater than 40.3 µM in [1]; 22.9 µM in assay [2]; 13.9 µM in [3]; 25.3 µM in [4]; 9.13 µM in assay [5].
For `COc1ccc(-n2c(C)cc(-c3ccccc3)c2C)cc1`, the GI50 in [1] is 1400 nM; in assay [2], 1.7 µM; in assay [3], 3.68 µM; in assay [4] it was 3280 nM; in assay [5], 2010 nM. Moreover, the TGI in assay [1] is greater than 100 µM; in [2], 3.93 µM; in assay [3], greater than 100 µM; in assay [4], 16.5 µM; in assay [5], 12.8 µM.
On to `CCCN1CN(C(C(=O)N[C@@H]2C(=O)N3C2SC(C)(C)C3C(=O)O)c2ccc(O)cc2)CSC1=S` (some centres undefined), for which the TGI was greater than 100 µM in assay [6]; 65.3 µM in assay [7]; greater than 100 µM in assay [10]; greater than 100 µM in [1]; greater than 100 µM in assay [8]; greater than 100 µM in assay [2]. Moreover, the TGI in [3], in assay [4] and in [5] was greater than 100 µM throughout.
Regarding `c1ccc2c(c1)c1c(c3ccccc32)CN2CCCC2C1` (centres undefined), the TGI is greater than 100 µM in assay [1]; 9.1 µM in assay [2]; 12.9 µM in assay [3]; greater than 90.8 µM in assay [4]; 12.8 µM in [5].
With `NC(=O)OCCn1cc(-c2nc(-c3c[nH]c4ncccc34)cs2)c2ccccc21`, the GI50 in assay [1] is 1550 nM; in [2] it was 1.52 µM; in assay [3], 2.05 µM; in [4] it was 2240 nM; in assay [5], 1570 nM. Further, the TGI in [1] turned out to be 14 µM; in [2] it was 3.96 µM; in [3], 14.8 µM; in assay [4], 7.66 µM; in [5], 5.41 µM.
As for `COc1ccc(-c2ccc(-c3ccc(C(=N)N)s3)s2)cc1`, the GI50 in assay [1] is 184 nM; in assay [2] it was 2.22 µM; in [3], 0.187 µM; in assay [4], 175 nM; in [5], 188 nM. Also, the TGI turned out to be 0.426 µM in assay [1]; 4.14 µM in assay [2]; 0.348 µM in [3]; 0.337 µM in assay [4]; 0.357 µM in [5].
On to `O=C1NC(=NCCc2cccc(Cl)c2)S/C1=C\c1ccc2ncccc2c1`, for which the GI50 in assay [1] was 1170 nM; in assay [2], greater than 25 µM; in assay [3], greater than 25 µM; in assay [4], greater than 25000 nM; in [5], greater than 25000 nM. The TGI in assay [1], in assay [2], in assay [3], in assay [4] and in assay [5] was greater than 25 µM each time.

Source of the values: PubChem BioAssay (NCI).
